In assay [1] the target is Tyrosine-protein kinase FRK (Homo sapiens) (UniProt P42685). As to the kind of experiment: Inhibition of human recombinant FRK at 15 nM related to control ULK1.
Assay [2] concerns the target Activin receptor type-2A (Homo sapiens) (UniProt P27037). Nature of the assay: Inhibition of human recombinant ACTR2 at 15 nM related to control ULK1.
In assay [3] the target is T1, Serine/threonine-protein kinase TAO3 (Homo sapiens) (UniProt Q9H2K8).
T1 sequence (whole entry): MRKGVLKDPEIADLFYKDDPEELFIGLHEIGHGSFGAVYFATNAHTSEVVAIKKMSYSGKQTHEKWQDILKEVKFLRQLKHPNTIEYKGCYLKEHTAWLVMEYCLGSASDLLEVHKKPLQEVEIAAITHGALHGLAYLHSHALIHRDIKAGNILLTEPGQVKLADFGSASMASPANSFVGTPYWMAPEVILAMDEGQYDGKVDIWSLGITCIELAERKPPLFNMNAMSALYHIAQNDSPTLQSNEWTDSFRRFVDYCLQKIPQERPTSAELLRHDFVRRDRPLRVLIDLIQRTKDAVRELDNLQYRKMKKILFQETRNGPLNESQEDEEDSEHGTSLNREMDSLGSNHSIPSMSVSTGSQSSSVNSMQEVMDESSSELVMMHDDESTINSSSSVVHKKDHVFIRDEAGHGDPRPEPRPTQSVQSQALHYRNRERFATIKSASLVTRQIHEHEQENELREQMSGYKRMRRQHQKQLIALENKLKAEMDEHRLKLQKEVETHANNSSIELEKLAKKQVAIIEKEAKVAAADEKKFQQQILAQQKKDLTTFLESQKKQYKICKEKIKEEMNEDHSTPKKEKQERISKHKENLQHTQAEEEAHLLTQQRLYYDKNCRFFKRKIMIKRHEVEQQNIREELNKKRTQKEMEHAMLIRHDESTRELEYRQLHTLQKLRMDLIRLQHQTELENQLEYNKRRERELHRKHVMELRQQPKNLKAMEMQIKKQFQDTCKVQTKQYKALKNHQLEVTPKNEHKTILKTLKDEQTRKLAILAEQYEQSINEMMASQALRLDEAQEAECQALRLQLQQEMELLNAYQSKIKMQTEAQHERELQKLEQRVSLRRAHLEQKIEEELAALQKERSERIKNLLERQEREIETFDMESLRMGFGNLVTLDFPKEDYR
As to the kind of experiment: Inhibition of human recombinant TAO3 at 15 nM related to control ULK1.

Assay [4] concerns the target Serine/threonine-protein kinase PLK2 (Homo sapiens) (UniProt Q9NYY3). As to the kind of experiment: Inhibition of human recombinant PLK2 at 15 nM related to control ULK1.
Assay [5] has as its target Receptor-interacting serine/threonine-protein kinase 2 (Homo sapiens) (UniProt O43353). As to the kind of experiment: Inhibition of human recombinant RIPK2 at 40 nM related to control ULK1.
For assay [6], the target named is T2, Serine/threonine-protein kinase 17B (Homo sapiens) (UniProt O94768).
T2 sequence (whole entry): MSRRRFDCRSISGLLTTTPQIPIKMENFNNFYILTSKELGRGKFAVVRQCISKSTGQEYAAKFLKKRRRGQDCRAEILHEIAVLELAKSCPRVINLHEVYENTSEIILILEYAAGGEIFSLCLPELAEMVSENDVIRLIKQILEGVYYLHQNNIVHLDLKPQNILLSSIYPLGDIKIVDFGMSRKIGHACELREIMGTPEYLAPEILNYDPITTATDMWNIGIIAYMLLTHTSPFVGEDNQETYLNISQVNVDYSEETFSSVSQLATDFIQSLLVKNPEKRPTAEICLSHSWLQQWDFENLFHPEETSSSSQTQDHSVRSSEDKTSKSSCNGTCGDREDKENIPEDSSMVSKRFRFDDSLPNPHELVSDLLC
Nature of the assay: Inhibition of human recombinant DRAK2 at 40 nM related to control ULK1.

Assay [7] addresses T3, Dual specificity mitogen-activated protein kinase kinase 6 (Homo sapiens) (UniProt P52564).
T3 sequence (whole entry): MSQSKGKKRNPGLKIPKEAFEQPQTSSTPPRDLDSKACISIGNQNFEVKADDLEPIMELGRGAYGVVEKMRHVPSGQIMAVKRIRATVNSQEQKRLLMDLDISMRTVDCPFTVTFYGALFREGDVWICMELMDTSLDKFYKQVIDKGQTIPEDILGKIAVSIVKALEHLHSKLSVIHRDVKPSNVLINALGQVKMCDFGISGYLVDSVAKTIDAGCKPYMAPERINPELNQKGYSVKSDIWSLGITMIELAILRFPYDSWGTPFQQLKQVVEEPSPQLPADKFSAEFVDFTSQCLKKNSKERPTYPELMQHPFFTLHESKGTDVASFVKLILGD
As to the kind of experiment: Inhibition of human recombinant MAP2K6 at 40 nM in presence of ATP by radiometric assay relative to control.

Assay [8] addresses Misshapen-like kinase 1 (Homo sapiens) (UniProt Q8N4C8). Nature of the assay: Inhibition of human recombinant MINK at 500 nM related to control ULK1.
Assay [9] has as its target Platelet-derived growth factor receptor beta (Homo sapiens) (UniProt P09619). Nature of the assay: Inhibition of human recombinant PDGFRb at 500 nM in presence of ATP by radiometric assay relative to control.
Assay [10] deals with Protein kinase C theta type (Homo sapiens) (UniProt Q04759). As to the kind of experiment: Inhibition of human recombinant PKCt at 500 nM related to control ULK1.
For assay [11], the target named is Epithelial discoidin domain-containing receptor 1 (Homo sapiens) (UniProt Q08345). Nature of the assay: Inhibition of human recombinant DDR1 at 500 nM related to control ULK1.
The target in assay [12] is Serine/threonine-protein kinase Nek6 (Homo sapiens) (UniProt Q9HC98). As to the kind of experiment: Inhibition of human recombinant NEK6 at 500 nM related to control ULK1.
The target in assay [13] is T4, Serine/threonine-protein kinase STK11 (Homo sapiens) (UniProt Q15831).
T4 sequence (whole entry): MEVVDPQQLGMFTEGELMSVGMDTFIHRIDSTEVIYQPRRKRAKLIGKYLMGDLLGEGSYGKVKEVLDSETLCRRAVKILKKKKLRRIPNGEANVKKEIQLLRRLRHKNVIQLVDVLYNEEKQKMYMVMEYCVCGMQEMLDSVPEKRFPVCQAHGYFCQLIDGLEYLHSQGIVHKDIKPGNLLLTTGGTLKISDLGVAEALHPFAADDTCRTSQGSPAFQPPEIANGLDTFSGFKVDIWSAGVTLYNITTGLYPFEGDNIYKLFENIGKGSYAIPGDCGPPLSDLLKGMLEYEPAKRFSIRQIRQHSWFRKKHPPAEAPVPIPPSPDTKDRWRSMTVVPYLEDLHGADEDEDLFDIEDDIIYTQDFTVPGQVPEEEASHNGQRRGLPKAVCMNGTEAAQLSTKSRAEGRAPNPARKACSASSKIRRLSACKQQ
As to the kind of experiment: Inhibition of human recombinant LKB1 at 500 nM in presence of ATP by radiometric assay relative to control.

With `CC(C)[C@H](NC(=O)c1cc(-c2cnn3cc(-c4ccc(OCCN5CCCCC5)cc4)cnc23)cs1)C(F)(F)F`, the fold change (FC) in assay [1] was determined as 0.15; in [2], 0.05; in assay [3], 0.01; in [4], 0.05.

In the case of `O=C(N[C@@H](C1CC1)C(F)(F)F)c1cc(-c2cnn3cc(-c4ccc(F)cc4)cnc23)cs1`, the fold change (FC) was determined as 0.41 in assay [5] and 0.53 in [6]. For the same molecule, the inhibition (usually how much of the control response was suppressed) in assay [7] turned out to be 0%.

For the molecule `CNC(=O)c1ccccc1Oc1nc(Nc2cc(OC)c(OC)c(OC)c2)ncc1Br`, the fold change (FC) in assay [8] was determined as 0.05; in assay [10] it was 0; in [11], 0.64; in assay [12], 0. Further, the inhibition is 0% in [9] and 12% in assay [13].

Values taken from ChEMBL document CHEMBL5653631, “A Potent and Selective ULK1 Inhibitor Suppresses Autophagy and Sensitizes Cancer Cells to Nutrient Stress” (iScience, 2018).
